Key:
Assay in all cases: Enzyme Assay: Pan SIK MS IC50 Assay
[1] = target: Serine/threonine-protein kinase SIK1 (Homo sapiens, UniProt P57059)
Experimental: (§1) Salt Induced Kinase (SIK) activity is determined by measuring the effect of a test agent on the activity of the appropriate SIK enzyme to phosphorylate its corresponding substrate. […] The phosphorylated substrate product resulting from the kinase reaction is detected by LCMS/MS, and the area under the peak curve correlates with kinase activity. […] The plates are spun at 1000 rpm for 30 seconds to ensure compounds are at the bottom of the well before removing foil covers. 0.15 μL HPE (assay std) and ZPE (DMSO) are added to the ARP using an HP D300 dispenser. Plates are spun again at 1000 rpm for 30 seconds. […] Plates are spun at 1000 rpm for 30 seconds. Plates are then sealed and incubated at RT for 10 minutes. Following incubation, 5 μL of 5× peptide reagent is added with a Multidrop Combi and designated small volume cassette to initiate the kinase reaction. Plates are spun at 1000 rpm for 30 seconds. Plates are then sealed and incubated at RT for 90 minutes. The assay is stopped by the addition of 5 μl of 120 mM EDTA added with a Multidrop Combi and designated small volume cassette (20 mM final concentration). Plates are spun at 1000 rpm for 30 seconds. 10 μl of the final reaction mix from each of the three individual enzyme plates are transferred by a Platemate Plus to the same corresponding 96 well deepwell plate containing 70 μl Water/Methanol (85/15%) for multiplex MS detection ([…]). Using Activity Base (ABase), an idbs data analysis software tool, the reported area ratio unit data is associated to compound, batch and dose information, the data is evaluated for quality, and the percent inhibition of each well is calculated. The data from each Max effect/HPE and Min effect/ZPE control wells are assessed, and outliers are excluded from all further calculations. The mean and standard deviation of the HPE and ZPE are then calculated for each plate, along with the Z Prime. The compound data is converted into % effect, using the average ZPE and HPE controls as 0% and 100% activity, respectively.

[2] = target: Serine/threonine-protein kinase SIK3 (Homo sapiens, UniProt Q9Y2K2)
Sequence of Serine/threonine-protein kinase SIK3 (Q9Y2K2 whole entry): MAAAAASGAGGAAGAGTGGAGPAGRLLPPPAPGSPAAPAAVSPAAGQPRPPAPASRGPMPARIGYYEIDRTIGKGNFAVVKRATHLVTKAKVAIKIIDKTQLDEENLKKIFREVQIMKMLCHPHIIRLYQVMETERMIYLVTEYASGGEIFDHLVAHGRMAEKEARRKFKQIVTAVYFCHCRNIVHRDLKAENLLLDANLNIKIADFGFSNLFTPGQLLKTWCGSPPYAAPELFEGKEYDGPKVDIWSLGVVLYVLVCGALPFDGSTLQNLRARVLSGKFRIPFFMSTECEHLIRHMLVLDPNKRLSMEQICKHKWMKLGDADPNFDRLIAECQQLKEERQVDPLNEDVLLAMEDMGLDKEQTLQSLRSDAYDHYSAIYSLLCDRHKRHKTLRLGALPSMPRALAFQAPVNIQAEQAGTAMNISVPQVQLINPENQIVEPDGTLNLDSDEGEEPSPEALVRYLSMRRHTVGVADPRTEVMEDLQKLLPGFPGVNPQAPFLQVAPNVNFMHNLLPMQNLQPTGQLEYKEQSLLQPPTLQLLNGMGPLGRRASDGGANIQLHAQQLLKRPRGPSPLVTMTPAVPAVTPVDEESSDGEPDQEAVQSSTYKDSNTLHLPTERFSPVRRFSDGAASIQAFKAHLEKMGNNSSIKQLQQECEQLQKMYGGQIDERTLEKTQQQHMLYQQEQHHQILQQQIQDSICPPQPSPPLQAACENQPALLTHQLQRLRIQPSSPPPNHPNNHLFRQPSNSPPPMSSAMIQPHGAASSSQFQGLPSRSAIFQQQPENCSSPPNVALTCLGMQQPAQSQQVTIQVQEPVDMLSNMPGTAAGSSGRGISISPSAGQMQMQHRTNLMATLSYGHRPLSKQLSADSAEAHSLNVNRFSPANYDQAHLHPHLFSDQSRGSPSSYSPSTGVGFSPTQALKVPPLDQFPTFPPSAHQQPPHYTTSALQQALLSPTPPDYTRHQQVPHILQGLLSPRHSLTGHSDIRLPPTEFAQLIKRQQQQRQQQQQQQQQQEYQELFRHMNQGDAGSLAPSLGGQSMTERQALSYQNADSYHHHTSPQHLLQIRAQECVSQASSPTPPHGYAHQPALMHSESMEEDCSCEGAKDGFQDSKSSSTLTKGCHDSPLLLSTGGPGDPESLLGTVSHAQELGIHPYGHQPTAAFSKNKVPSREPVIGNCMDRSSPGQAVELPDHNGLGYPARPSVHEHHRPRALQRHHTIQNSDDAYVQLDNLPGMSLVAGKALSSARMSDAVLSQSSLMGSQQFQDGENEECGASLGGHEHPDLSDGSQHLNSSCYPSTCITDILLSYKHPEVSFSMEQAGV
Experimental: as §1

[3] = target: Serine/threonine-protein kinase SIK2 (Homo sapiens, UniProt Q9H0K1)
Sequence of Serine/threonine-protein kinase SIK2 (Q9H0K1 whole entry): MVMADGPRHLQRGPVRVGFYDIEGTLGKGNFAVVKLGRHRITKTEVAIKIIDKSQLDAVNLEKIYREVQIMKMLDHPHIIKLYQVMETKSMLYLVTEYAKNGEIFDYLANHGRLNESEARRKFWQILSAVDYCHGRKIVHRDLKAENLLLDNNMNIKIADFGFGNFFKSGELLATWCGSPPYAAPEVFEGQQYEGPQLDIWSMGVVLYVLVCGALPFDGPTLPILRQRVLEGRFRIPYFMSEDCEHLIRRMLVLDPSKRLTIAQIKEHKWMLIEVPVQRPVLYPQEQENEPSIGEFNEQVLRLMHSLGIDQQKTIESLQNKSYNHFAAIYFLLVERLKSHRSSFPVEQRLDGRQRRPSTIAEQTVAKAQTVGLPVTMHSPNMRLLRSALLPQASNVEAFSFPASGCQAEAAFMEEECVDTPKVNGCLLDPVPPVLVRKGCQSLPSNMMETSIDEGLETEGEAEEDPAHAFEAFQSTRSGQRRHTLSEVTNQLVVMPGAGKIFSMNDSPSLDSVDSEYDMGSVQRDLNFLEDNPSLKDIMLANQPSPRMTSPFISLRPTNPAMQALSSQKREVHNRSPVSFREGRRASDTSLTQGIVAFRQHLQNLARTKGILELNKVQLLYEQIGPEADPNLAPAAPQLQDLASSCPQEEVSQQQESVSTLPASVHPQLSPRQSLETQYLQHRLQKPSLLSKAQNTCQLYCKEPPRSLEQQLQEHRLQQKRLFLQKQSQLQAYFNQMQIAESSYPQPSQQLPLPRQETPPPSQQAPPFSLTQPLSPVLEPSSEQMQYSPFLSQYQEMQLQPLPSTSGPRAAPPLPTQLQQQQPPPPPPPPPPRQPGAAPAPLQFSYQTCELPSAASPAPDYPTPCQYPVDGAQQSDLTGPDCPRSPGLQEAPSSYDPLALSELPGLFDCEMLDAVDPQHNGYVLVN
Experimental: as §1

Sequence of Serine/threonine-protein kinase SIK1 (P57059 whole entry): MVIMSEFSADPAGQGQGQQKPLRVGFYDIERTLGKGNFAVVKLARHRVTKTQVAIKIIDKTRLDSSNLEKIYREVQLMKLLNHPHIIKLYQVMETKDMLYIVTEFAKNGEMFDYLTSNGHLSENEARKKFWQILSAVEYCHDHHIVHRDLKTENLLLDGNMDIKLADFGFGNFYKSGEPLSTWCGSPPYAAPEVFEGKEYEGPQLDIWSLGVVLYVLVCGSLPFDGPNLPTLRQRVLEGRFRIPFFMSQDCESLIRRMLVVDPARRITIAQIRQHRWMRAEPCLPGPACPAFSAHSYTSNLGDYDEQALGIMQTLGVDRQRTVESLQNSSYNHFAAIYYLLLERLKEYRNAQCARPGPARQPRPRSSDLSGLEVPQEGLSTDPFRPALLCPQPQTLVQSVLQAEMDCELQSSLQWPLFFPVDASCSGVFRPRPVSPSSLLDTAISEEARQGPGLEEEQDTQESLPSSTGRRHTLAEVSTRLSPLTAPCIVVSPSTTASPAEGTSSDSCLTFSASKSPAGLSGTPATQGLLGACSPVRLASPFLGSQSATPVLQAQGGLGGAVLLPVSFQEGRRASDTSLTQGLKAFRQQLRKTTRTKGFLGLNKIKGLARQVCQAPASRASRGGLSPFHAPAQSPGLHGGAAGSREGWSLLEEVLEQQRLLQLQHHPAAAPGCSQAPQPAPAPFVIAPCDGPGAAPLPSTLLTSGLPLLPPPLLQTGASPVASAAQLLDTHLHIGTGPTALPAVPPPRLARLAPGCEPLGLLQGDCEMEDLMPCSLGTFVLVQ

CC[C@@H]1CCC[C@@]1(N)COc1cc(-c2cnc3cccc(OC)n23)cc(SC)c1C#N (mixture of isomers) [US20240124450, Example 9]
IC50 [1]: 0.9 nM | IC50 [2]: 2 nM

CSc1cc(-c2cnc3cccc(C#N)n23)cc(OC[C@@]2(N)CCC(F)(F)C2)c1C#N (mixture of isomers) [US20240124450, Example 12]
IC50 [1]: 2.4 nM | IC50 [3]: 1.8 nM | IC50 [2]: 4.8 nM

CC[C@@H]1CCC[C@](N)(COc2cc(-c3cnc4cccc(OC)n34)cc(OC)c2C#N)C1 [US20240124450, Example 16]
IC50 [1]: 0.8 nM | IC50 [2]: 1.7 nM

Reference: BindingDB's records for patent US20240124450 (Pfizer, 2024)
